Measurements: patent US20060292243A1, “Arsenic compounds for the treatment of the arsenic-sensitive blast-cell related diseases” (priority 2005, published 2006)
Where two headings read alike, the source gives them in different places.

What was measured:
[1] = test system: FCC1/NH strain of P. falciparum; test: Malaria inhibition test; assay type: cell-based
Procedure: FCC1/NH strain (from Hainan, P.R.C.) of P. falciparum was used. The strain of the parasite was cultured by culture media mainly composed of RPMI-1640(GBCO), HEPES (GBCO), NaHCO3, and AB type serum. In a given experiment, Petri dish cultures were diluted with culture medium containing an amount of noninfected type B human erythrocytes to obtain a culture with a final parasitemia of about 1%. The resulting culture was ready for addition to microtitration plates with 96 flat-bottom wells.
The final volume added to each of the 96-well microtitration plates was 200 μl, consisted of 20 μl of complete medium with or without the drug (arsenic trioxide) and 180 μl of the parasitized culture. The microtitration plates were incubated in 5% CO2 for an additional 48 hr, at 37 C. The suspensions were discarded and infection rate of RBC in each well was calculated by microscope examination after Giemsa staining. When drugs interfere, an inhibitory dose of 50% (IC50) and 90% (IC90) can be calculated. A series of experiments is shown below.
The malaria inhibition experiment was performed in 4 lanes for each arsenic trioxide dose, and the initial infectious rate is 1.8%. After 48 hours of incubation, 5000 RBCs in each well were checked by microscope.
Another malaria inhibition experiment was performed in 4 lanes for each arsenic trioxide dose, and the initial infectious rate is 1.5%. After 48 hours of incubation, 5000 RBCs in each well were checked by microscope.
The other malaria inhibition experiment was performed in 12 lanes for each arsenic trioxide dose, and the initial infectious rate is 1.1%. After 48 hours of incubation, 5000 RBCs in each well were checked by microscope.
The other malaria inhibition experiment was performed in 6 lanes for each arsenic trioxide dose, and the initial infectious rate is 1.1%. After 48 hours of incubation, 5000 RBCs in each well were checked by microscope.

[2] = test system: PBMCs (peripheral blood mononuclear cells); test: PI staining, cell death within all PBMCs by flowcytometry; assay type: cell-based
Description: Arsenic trioxide (Asadin®) induces differentiation and apoptosis of malignant cells in vitro and in vivo and has been used in the treatment of a variety of hematological malignancies, the main goal of this example is to try to identify the apoptotic effect of arsenic trioxide on various PBMCs (peripheral blood mononuclear cells), and the methodologies used in this invention include:
1. The isolation procedure using Ficoll Plaque for exploiting the different densities of RBCs and PBMCs to separate them.
2. The detection of apoptosis by PI staining through flowcytometry.
In the PI-based study, under different concentrations of arsenic trioxide (0, 0.5, 2.5, 5, or 10 μM), the percentages of cell death (within all PBMCs) in 24 hr and 48 hr were calculated respectively in Table 1.1.

[3] = 0.031 uM, exp. 5.2.2, initial infectious rate 1.5%, 4 lanes, 48 hours
[4] = 0.063 uM, exp. 5.2.2, initial infectious rate 1.5%, 4 lanes, 48 hours
[5] = 0.125 uM, exp. 5.2.2, initial infectious rate 1.5%, 4 lanes, 48 hours
[6] = 0.25 uM, exp. 5.2.1, initial infectious rate 1.8%, 4 lanes, 48 hours
[7] = 0.25 uM, exp. 5.2.2, initial infectious rate 1.5%, 4 lanes, 48 hours
[8] = 0.5 uM, exp. 5.2.1, initial infectious rate 1.8%, 4 lanes, 48 hours
[9] = 0.5 uM, exp. 5.2.2, initial infectious rate 1.5%, 4 lanes, 48 hours
[10] = 0.5 uM, exp. 5.2.3, initial infectious rate 1.1%, 12 lanes, 48 hours
[11] = 0.5 uM, exp. 5.2.4, initial infectious rate 1.1%, 6 lanes, 48 hours
[12] = 1.0 uM, exp. 5.2.1, initial infectious rate 1.8%, 4 lanes, 48 hours
[13] = 1.0 uM, exp. 5.2.2, initial infectious rate 1.5%, 4 lanes, 48 hours
[14] = 1.0 uM, exp. 5.2.3, initial infectious rate 1.1%, 12 lanes, 48 hours
[15] = 1.0 uM, exp. 5.2.4, initial infectious rate 1.1%, 6 lanes, 48 hours
[16] = 2.0 uM, exp. 5.2.1, initial infectious rate 1.8%, 4 lanes, 48 hours
[17] = 2.0 uM, exp. 5.2.2, initial infectious rate 1.5%, 4 lanes, 48 hours
[18] = 2.0 uM, exp. 5.2.3, initial infectious rate 1.1%, 12 lanes, 48 hours
[19] = 2.0 uM, exp. 5.2.4, initial infectious rate 1.1%, 6 lanes, 48 hours
[20] = 4.0 uM, exp. 5.2.1, initial infectious rate 1.8%, 4 lanes, 48 hours
[21] = 4.0 uM, exp. 5.2.2, initial infectious rate 1.5%, 4 lanes, 48 hours
[22] = 4.0 uM, exp. 5.2.3, initial infectious rate 1.1%, 12 lanes, 48 hours
[23] = 4.0 uM, exp. 5.2.4, initial infectious rate 1.1%, 6 lanes, 48 hours
[24] = 8.0 uM, exp. 5.2.1, initial infectious rate 1.8%, 4 lanes, 48 hours
[25] = 8.0 uM, exp. 5.2.2, initial infectious rate 1.5%, 4 lanes, 48 hours
[26] = 8.0 uM, exp. 5.2.3, initial infectious rate 1.1%, 12 lanes, 48 hours
[27] = 8.0 uM, exp. 5.2.4, initial infectious rate 1.1%, 6 lanes, 48 hours

## arsenic trioxide
[1]; 0.031 uM, exp. 5.2.2
  Probability unit (Y): 4.1619
[1]; [3]
  Infection rate (%): 79.9%
  Inhibition rate (%): 20.1%
[1]; 0.063 uM, exp. 5.2.2
  Probability unit (Y): 4.3659
[1]; [4]
  Infection rate (%): 73.7%
  Inhibition rate (%): 26.3%
[1]; 0.125 uM, exp. 5.2.2
  Probability unit (Y): 4.5239
[1]; [5]
  Infection rate (%): 68.3%
  Inhibition rate (%): 31.7%
[1]; 0.25 uM, exp. 5.2.1
  Probability unit (Y): 5.1942
[1]; [6]
  Infection rate (%): 42.3%
  Inhibition rate (%): 57.7%
[1]; 0.25 uM, exp. 5.2.2
  Probability unit (Y): 4.8743
[1]; [7]
  Infection rate (%): 54.9%
  Inhibition rate (%): 45.1%
[1]; 0.5 uM, exp. 5.2.1
  Probability unit (Y): 5.6903
[1]; [8]
  Infection rate (%): 24.5%
  Inhibition rate (%): 75.5%
[1]; 0.5 uM, exp. 5.2.2
  Probability unit (Y): 5.1408
[1]; [9]
  Infection rate (%): 44.4%
  Inhibition rate (%): 55.6%
[1]; 0.5 uM, exp. 5.2.3
  Probability unit (Y): 5.6008
[1]; [10]
  Infection rate (%): 27.4%
  Inhibition rate (%): 72.6%
[1]; 0.5 uM, exp. 5.2.4
  Probability unit (Y): 5.6903
[1]; [11]
  Infection rate (%): 24.5%
  Inhibition rate (%): 75.5%
[1]; 1.0 uM, exp. 5.2.1
  Probability unit (Y): 5.8596
[1]; [12]
  Infection rate (%): 19.5%
  Inhibition rate (%): 80.5%
[1]; 1.0 uM, exp. 5.2.2
  Probability unit (Y): 5.9192
[1]; [13]
  Infection rate (%): 17.9%
  Inhibition rate (%): 82.1%
[1]; 1.0 uM, exp. 5.2.3
  Probability unit (Y): 5.1311
[1]; [14]
  Infection rate (%): 12.9%
  Inhibition rate (%): 87.1%
[1]; 1.0 uM, exp. 5.2.4
  Probability unit (Y): 6.0027
[1]; [15]
  Infection rate (%): 15.7%
  Inhibition rate (%): 84.3%
[1]; 2.0 uM, exp. 5.2.1
  Probability unit (Y): 6.0939
[1]; [16]
  Infection rate (%): 13.7%
  Inhibition rate (%): 86.3%
[1]; 2.0 uM, exp. 5.2.2
  Probability unit (Y): 6.1311
[1]; [17]
  Infection rate (%): 12.9%
  Inhibition rate (%): 87.1%
[1]; 2.0 uM, exp. 5.2.3
  Probability unit (Y): 6.3722
[1]; [18]
  Infection rate (%): 8.5%
  Inhibition rate (%): 91.5%
[1]; 2.0 uM, exp. 5.2.4
  Probability unit (Y): 6.3408
[1]; [19]
  Infection rate (%): 9.0%
  Inhibition rate (%): 91.0%
[1]; 4.0 uM, exp. 5.2.1
  Probability unit (Y): 6.3225
[1]; [20]
  Infection rate (%): 9.3%
  Inhibition rate (%): 90.7%
[1]; 4.0 uM, exp. 5.2.2
  Probability unit (Y): 6.2160
[1]; [21]
  Infection rate (%): 11.2%
  Inhibition rate (%): 88.8%
[1]; 4.0 uM, exp. 5.2.3
  Probability unit (Y): 6.7866
[1]; [22]
  Infection rate (%): 3.6%
  Inhibition rate (%): 96.3%
[1]; 4.0 uM, exp. 5.2.4
  Probability unit (Y): 6.7507
[1]; [23]
  Infection rate (%): 4.0%
  Inhibition rate (%): 96.0%
[1]; 8.0 uM, exp. 5.2.1
  Probability unit (Y): 6.4909
[1]; [24]
  Infection rate (%): 6.8%
  Inhibition rate (%): 93.2%
[1]; 8.0 uM, exp. 5.2.2
  Probability unit (Y): 6.6352
[1]; [25]
  Infection rate (%): 5.1%
  Inhibition rate (%): 94.9%
[1]; 8.0 uM, exp. 5.2.3
  Probability unit (Y): 7.0537
[1]; [26]
  Infection rate (%): 2.0%
  Inhibition rate (%): 98.0%
[1]; 8.0 uM, exp. 5.2.4
  Probability unit (Y): 7.0749
[1]; [27]
  Infection rate (%): 1.9%
  Inhibition rate (%): 98.1%
[1]; exp. 5.2.1, initial infectious rate 1.8%, 48 hours, read-out: IC50
  IC50: 100 nM
[1]; exp. 5.2.1, initial infectious rate 1.8%, 48 hours, read-out: IC90
  IC90: 3680 nM
[1]; exp. 5.2.1, 95% confidence limit 11.43˜34.2 ng/ml
  IC50: 0.01978 µg/mL
[1]; exp. 5.2.1, 95% confidence limit 420.84˜1259.53 ng/ml
  IC90: 0.72805 µg/mL
[1]; exp. 5.2.2, initial infectious rate 1.5%, 48 hours, read-out: IC50
  IC50: 250 nM
[1]; exp. 5.2.2, initial infectious rate 1.5%, 48 hours, read-out: IC90
  IC90: 3730 nM
[1]; exp. 5.2.2, 95% confidence limit 28.00˜86.73 ng/ml
  IC50: 0.04928 µg/mL
[1]; exp. 5.2.2, 95% confidence limit 419.28˜1298.77 ng/ml
  IC90: 0.73794 µg/mL
[1]; exp. 5.2.3, initial infectious rate 1.1%, 12 lanes, 48 hours, read-out: IC50
  IC50: 130 nM
[1]; exp. 5.2.3, initial infectious rate 1.1%, 12 lanes, 48 hours, read-out: IC90
  IC90: 960 nM
[1]; exp. 5.2.3, 95% confidence limit 18.91˜34.9 ng/ml
  IC50: 0.02572 µg/mL
[1]; exp. 5.2.3, 95% confidence limit 139.65˜258.3 ng/ml
  IC90: 0.18993 µg/mL
[1]; exp. 5.2.4, initial infectious rate 1.1%, 6 lanes, 48 hours, read-out: IC90
  IC90: 2090 nM
[1]; exp. 5.2.4, 95% confidence limit 40.32˜99.4 ng/ml
  IC50: 0.06331 µg/mL
[1]; exp. 5.2.4, 95% confidence limit printed 263.06˜258.30 ng/ml
  IC90: 0.41348 µg/mL
[2]; 0.5 μM
  24 hr % cell death: 7.3 ± 1.2%
  48 hr % cell death: 7.6 ± 0.6%
[2]; 2.5 μM
  24 hr % cell death: 13.7 ± 1.6%
  48 hr % cell death: 15.2 ± 2.3%
[2]; 5.0 μM
  24 hr % cell death: 14.6 ± 2.1%
  48 hr % cell death: 17.2 ± 1.9%
[2]; 10 μM
  24 hr % cell death: 17.8 ± 1.8%
  48 hr % cell death: 20.3 ± 2.6%
